Measured values from patent US12528812B2 (Genentech, Inc., priority 2020, dated 2026).
pIC50, pKi: −log10 of the molar value. Like-named read-outs stand apart in the source and are kept apart here.

Key:
[1] = tested on: IL-13-stimulated STAT6 phosphorylation in human lung bronchial epithelial BEAS-2B cell line; test: P-STAT6 BEAS-2B + IL-13 cell assay; format: cell-based; settings: BEAS2B cells, IL13 stimulation, read-out: Cellular JAK1 PSTAT6 BEAS2B + IL13
Summary of the method: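 Phospho-STAT6 (Tyr641) was quantified in lysates by MSD electrochemiluminescence after human IL-13 challenge (250 ng/mL stock, 15 min, 37 °C). Before that, BEAS-2B cells cultured 48 h had 1 h compound exposure over 10 concentrations. Percent of control was fitted to a four-parameter logistic model to give IC50.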

[2] = molecular target: Recombinant human JAK2 kinase domain protein (Residues 812-1132) (Homo sapiens, UniProt O60674); test: JAK2 biochemical assay (LabChip mobility shift, Ki)
Protocol: The in vitro biochemical assays quantify JAK-catalyzed phosphorylation of a synthetic peptide, as detected using a LabChip® EZ Reader II microfluidic mobility shift instrument (PerkinElmer; Waltham, MA). […] Y-1B is fluorescently labeled on the N-terminus with 5-FAM (5-carboxyfluorescein) and contains a single tyrosine residue (Y) that can be phosphorylated by JAK activity. The substrate peptide stock is prepared in DMSO at 5 mM. […] In each titration experiment, test compound was tested in duplicate at each of the twelve concentrations. Blank reactions contained ATP, peptide, and DMSO, but no JAK or test compound, whereas uninhibited control reactions contained ATP, peptide, JAK, and DMSO, but no test compound.
Peptide plus ATP mixture (24 μL) was added to 1 μL of test compound in DMSO (or DMSO alone). The reactions were initiated by adding 25 μL of JAK enzyme to the inhibitor/peptide/ATP mixture before thoroughly mixing the resultant solution. Reactions were incubated at room temperature (22° C.-23° C.) in a final volume of 50 μL per well in 384-well plates. After a 30-minute incubation, the reactions were stopped by adding 25 μL of 150 mM ethylenediaminetetraacetic acid in 100 mM HEPES buffer (pH 7.2) containing 0.015% Brij 35 to each well.
In each reaction, the residual Y-1B substrate and the phospho-peptide product generated were separated using the EZ Reader II instrument. Electrophoretic separation of molecules of product from molecules of substrate was achieved using downstream and upstream voltages of −500 and −2600 V, respectively, at an operating pressure of −1.3 psi.
The extent (or percent) of conversion of substrate to product was calculated from the corresponding peak heights in the electropherogram using HTS Well Analyzer software, Version 5.2 (PerkinElmer), and the following equation (Equation 1): conversion=[P÷(S+P)]×100 Equation 1% where S and P represent the peak heights of the substrate and product, respectively. After any baseline signal from blank wells containing no JAK was subtracted from the signal of all test wells, the % conversion data were converted to fractional activity as shown in Equation 2, where vi and vo are the % conversion in the presence and absence of test compound, respectively.

[3] = molecular target: T1, recombinant human JAK1 kinase domain protein (Residues 854-1154) (Homo sapiens, UniProt P23458); test: JAK1 biochemical assay (LabChip mobility shift, Ki); settings: read-out: Biochem JAK1 Ki
T1 construct: human JAK1 kinase domain protein (Residues 854-1154); purchased Proteros Biostructures GmbH (Martinsried, Germany); host or cells: insect cells
T1 sequence (P23458 854-1154): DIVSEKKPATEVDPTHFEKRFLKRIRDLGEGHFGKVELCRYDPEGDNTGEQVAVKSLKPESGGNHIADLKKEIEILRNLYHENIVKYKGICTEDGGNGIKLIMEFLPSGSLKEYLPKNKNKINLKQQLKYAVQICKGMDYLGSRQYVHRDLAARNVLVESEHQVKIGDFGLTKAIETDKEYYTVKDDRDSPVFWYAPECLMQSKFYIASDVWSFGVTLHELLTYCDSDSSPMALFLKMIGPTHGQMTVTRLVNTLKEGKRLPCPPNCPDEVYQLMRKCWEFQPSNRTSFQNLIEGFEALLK

Sequence of Recombinant human JAK2 kinase domain protein (Residues 812-1132) (O60674 812-1132): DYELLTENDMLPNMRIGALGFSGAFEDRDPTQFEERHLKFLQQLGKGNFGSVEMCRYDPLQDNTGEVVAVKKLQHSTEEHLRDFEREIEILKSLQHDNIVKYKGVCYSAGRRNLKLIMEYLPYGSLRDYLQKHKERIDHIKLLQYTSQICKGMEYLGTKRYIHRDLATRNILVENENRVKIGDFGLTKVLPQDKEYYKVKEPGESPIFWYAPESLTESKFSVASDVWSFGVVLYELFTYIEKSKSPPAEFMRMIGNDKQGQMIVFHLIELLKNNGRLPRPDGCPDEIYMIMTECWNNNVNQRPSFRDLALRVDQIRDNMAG

Compound	pIC50 ([1]; Homo sapiens, BEAS-2B)	pKi ([2]; Biochem JAK2 Ki)	pKi [3]	pIC50 [1]	pKi ([2]; read-out: Biochem JAK2 Ki)
Cn1cc(NC(=O)c2cnn3cccnc23)c(-c2cc(Oc3cccc(CN[C@H]4C[C@H](O)C4)c3)ccc2OC(F)F)n1 [Example 72, N-[3-[2-(difluoromethoxy)-5-[3-[[(3-hydroxycyclobutyl)amino]methyl]phenoxy]phenyl]-1-methyl-pyrazol-4-yl]pyrazolo[1,5-a]pyrimidine-3-carboxamide]	7.21	9.13	9.04	–	–
O=C(Nc1c[nH]nc1-c1cc(Oc2cccc(C3(O)CNC3)c2)ccc1OC(F)F)c1cnn2cccnc12 [Example 137, N-[3-[2-(difluoromethoxy)-5-[3-(3-hydroxyazetidin-3-yl)phenoxy]phenyl]-1H-pyrazol-4-yl]pyrazolo[1,5-a]pyrimidine-3-carboxamide;2,2,2-trifluoroacetic acid]	–	–	9.09	6.00	9.29
CN1CCN(C(=O)c2ccc(Oc3ccc(OC(F)F)c(-c4nn(C)cc4NC(=O)c4cnn5cccnc45)c3)cc2)CC1 [Example 86, N-[3-[2-(difluoromethoxy)-5-[4-(4-methylpiperazine-1-carbonyl)phenoxy]phenyl]-1-methyl-pyrazol-4-yl]pyrazolo[1,5-a]pyrimidine-3-carboxamide]	7.11	9.25	8.96	–	–
CN1CCCC(O)(Cn2cc(Oc3ccc(OC(F)F)c(-c4nn(C)cc4NC(=O)c4cnn5cccnc45)c3)cn2)C1 (stereo not drawn) [Example 194, N-[3-[2-(difluoromethoxy)-5-[1-[(3-hydroxy-l-methyl-3-piperidyl)methyl]pyrazol-4-yl]oxy-phenyl]-1-methyl-pyrazol-4-yl]pyrazolo[1,5-a]pyrimidine-3-carboxamide]	–	8.85	8.68	7.19	–
CN1CC(O)(c2cccc(Oc3ccc(OC(F)F)c(-c4nn(CCO)cc4NC(=O)c4cnn5cccnc45)c3)c2)C1 [Example 97, N-[3-[2-(difluoromethoxy)-5[3-(3-hydroxy-1-methyl-azetidin-3-yl)phenoxy]phenyl]-1-(2-hydroxyethyl)pyrazol-4-yl]pyrazolo[1,5-a]pyrimidine-3-carboxamide]	6.52	9.22	9.07	–	–
Cn1cc(NC(=O)c2cnn3cccnc23)c(-c2cc(Oc3cnn(C4CNCC4O)c3)ccc2OC(F)F)n1 (stereo not drawn) [Example 176, N-[3-[2-(difluoromethoxy)-5-[1-(4-hydroxypyrrolidin-3-yl)pyrazol-4-yl]oxy-phenyl]-1-methyl-pyrazol-4-yl]pyrazolo[1,5-a]pyrimidine-3-carboxamide]	6.68	9.68	9.60	–	–
CN1CCC[C@H]1Cn1cc(NC(=O)c2cnn3cccnc23)c(-c2cc(Oc3cccc(CC#N)c3)ccc2OC(F)F)n1 (racemic) [Example 37, N-[3-[5-[3-(cyanomethyl)phenoxy]-2-(difluoromethoxy)phenyl]-1-[[rac-(2R)-1-methylpyrrolidin-2-yl]methyl]pyrazol-4-yl]pyrazolo[1,5-a]pyrimidine-3-carboxamide]	7.80	8.85	9.26	–	–
CN1CC(O)(c2cccc(Oc3ccc(OC(F)F)c(-c4nn(C5CCOCC5)cc4NC(=O)c4cnn5cccnc45)c3)c2)C1 [Example 98, N-[3-[2-(difluoromethoxy)-5-[3-(3-hydroxy-l-methyl-azetidin-3-yl)phenoxy]phenyl]-1-tetrahydropyran-4-yl-pyrazol-4-yl]pyrazolo[1,5-a]pyrimidine-3-carboxamide]	7.21	8.55	9.06	–	–
Cn1cc(NC(=O)c2cnn3cccnc23)c(-c2cc(Oc3ccc(CN4CCC[C@H](CO)C4)cc3)ccc2OC(F)F)n1 (racemic) [Example 162, 3-[2-(difluoromethoxy)-5-[4-[[rac-(3S)-3-(hydroxymethyl)-1-piperidyl]methyl]phenoxy]phenyl]-1-methyl-pyrazol-4-yl]pyrazolo[1,5-a]pyrimidine-3-carboxamide]	7.49	9.12	8.59	–	–
CN1CC(CC#N)(c2ccc(Oc3ccc(OC(F)F)c(-c4nn(C)cc4NC(=O)c4cnn5cccnc45)c3)cc2)C1 [Example 145, N-[3-[5-[4-[3-(cyanomethyl)-1-methyl-azetidin-3-yl]phenoxy]-2-(difluoromethoxy)phenyl]-1-methyl-pyrazol-4-yl]pyrazolo[1,5-a]pyrimidine-3-carboxamide]	6.80	8.51	8.26	–	–
Cn1cc(NC(=O)c2cnn3cccnc23)c(-c2cc(Oc3cccc(CN4CCOCC4)c3)ccc2OC(F)F)n1 [Example 46, N-[3-[2-(difluoromethoxy)-5-[3-(morpholinomethyl)phenoxy]phenyl]-1-methyl-pyrazol-4-yl]pyrazolo[1,5-a]pyrimidine-3-carboxamide]	7.17	8.80	8.82	–	–
CN1CCC[C@H]1Cn1cc(NC(=O)c2cnn3cccnc23)c(-c2cc(Oc3ccccc3)ccc2OC(F)F)n1 (racemic) [Example 31, N-[3-[2-(difluoromethoxy)-5-phenoxy-phenyl]-1-[[rac-(2R)-1-methylpyrrolidin-2-yl]methyl]pyrazol-4-yl]pyrazolo[1,5-a]pyrimidine-3-carboxamide]	8.04	9.07	9.43	–	–
CN(C)[C@H]1CCN(C(=O)c2cccc(Oc3ccc(OC(F)F)c(-c4nn(C)cc4NC(=O)c4cnn5cccnc45)c3)c2)C1 (racemic) [Example 210, N-[3-[2-(difluoromethoxy)-5-[3-[rac-(3R)-3-(dimethylamino)pyrrolidine-1-carbonyl]phenoxy]phenyl]-1-methyl-pyrazol-4-yl]pyrazolo[1,5-a]pyrimidine-3-carboxamide]	7.30	9.02	8.96	–	–
CN1CCc2cc(Oc3ccc(OC(F)F)c(-c4nn(C)cc4NC(=O)c4cnn5cccnc45)c3)ccc2C1 [Example 64, N-[3-[2-(difluoromethoxy)-5-[(2-methyl-3,4-dihydro-1H-isoquinolin-6-yl)oxy]phenyl]-1-methyl-pyrazol-4-yl]pyrazolo[1,5-a]pyrimidine-3-carboxamide]	7.23	9.24	8.77	–	–
Cn1cc(NC(=O)c2cnn3cccnc23)c(-c2cc(Oc3cnn(CC4(O)CNC4)c3)ccc2OC(F)F)n1 [Example 122, N-[3-[2-(difluoromethoxy)-5-[1-[(3-hydroxyazetidin-3-yl)methyl]pyrazol-4-yl]oxy-phenyl]-1-methyl-pyrazol-4-yl]pyrazolo[1,5-a]pyrimidine-3-carboxamide]	6.41	9.25	9.28	–	–
Cn1cc(NC(=O)c2cnn3cccnc23)c(-c2cc(Oc3cccc(CN4CCO[C@H](CO)C4)c3)ccc2OC(F)F)n1 (stereo in doubt) [Example 94, N-[3-[2-(difluoromethoxy)-5-[3-[[rac-(2R)-2-(hydroxymethyl)morpholin-4-yl]methyl]phenoxy]phenyl]-1-methyl-pyrazol-4-yl]pyrazolo[1,5-a]pyrimidine-3-carboxamide]	7.40	8.96	8.77	–	–
N#CCc1cccc(Oc2ccc(OC(F)F)c(-c3n[nH]cc3NC(=O)c3cnn4cccnc34)c2)c1 [Example 12, N-[3-[5-[3-(cyanomethyl)phenoxy]-2-(difluoromethoxy)phenyl]-1H-pyrazol-4-yl]pyrazolo[1,5-a]pyrimidine-3-carboxamide]	7.74	9.68	9.68	–	–
Cn1cc(NC(=O)c2cnn3cccnc23)c(-c2cc(Oc3cnn(C4CCNCC4O)c3)ccc2OC(F)F)n1 (stereo not drawn) [Example 183, N-[3-[2-(difluoromethoxy)-5-[1-(3-hydroxy-4-piperidyl)pyrazol-4-yl]oxy-phenyl]-1-methyl-pyrazol-4-yl]pyrazolo[1,5-a]pyrimidine-3-carboxamide]	–	9.66	9.39	6.82	–
Cn1cc(NC(=O)c2cnn3cccnc23)c(-c2cc(Oc3cnn(C4CNCC4O)c3)ccc2OC(F)F)n1 (stereo not drawn) [Example 177, N-[3-[2-(difluoromethoxy)-5-[1-(4-hydroxypyrrolidin-3-yl)pyrazol-4-yl]oxy-phenyl]-1-methyl-pyrazol-4-yl]pyrazolo[1,5-a]pyrimidine-3-carboxamide]	–	9.47	9.24	6.48	–
Cc1ccc(Oc2ccc(OC(F)F)c(-c3n[nH]cc3NC(=O)c3cnn4cccnc34)c2)cc1CC(=O)N(C)C [Example 17, N-[3-[2-(difluoromethoxy)-5-[3-[2-(dimethylamino)-2-oxo-ethyl]-4-methyl-phenoxy]phenyl]-1H-pyrazol-4-yl]pyrazolo[1,5-a]pyrimidine-3-carboxamide]	7.59	9.68	9.38	–	–
O=C(Nc1c[nH]nc1-c1cc(Oc2cccc(OCC(F)(F)F)c2)ccc1OC(F)F)c1cnn2cccnc12 [Example 4, N-[3-[2-(difluoromethoxy)-5-[3-(2,2,2-trifluoroethoxy)phenoxy]phenyl]-1H-pyrazol-4-yl]pyrazolo[1,5-a]pyrimidine-3-carboxamide]	7.74	9.15	8.96	–	–
Cn1cc(NC(=O)c2cnn3cccnc23)c(-c2cc(Oc3cccc([C@@H]4COCCN4)c3)ccc2OC(F)F)n1 (stereo in doubt) [Example 32, N-[3-[2-(difluoromethoxy)-5-[3-[rac-(3R)-morpholin-3-yl]phenoxy]phenyl]-1-methyl-pyrazol-4-yl]pyrazolo[1,5-a]pyrimidine-3-carboxamide]	7.34	9.41	9.17	–	–
